According to US12350272B2, “Pyridopyrimidinone derivatives for use as AXL inhibitors” (OSCOTEC INC., priority 2018, dated 2025):
Structures can show the parent of a compound that is named as a salt. Where two headings read alike, the source gives them in different places.

Tests used:
Truncated human Axl = Truncated human Axl (Homo sapiens, UniProt P30530); test: Kinase inhibition assay (inhibition of enzymatic Axl kinase activity); format: biochemical
Protocol: Compounds of Formula (I) as obtained above were assayed to measure their capacity to inhibit Axl kinase. Axl belongs to the recently identified TYRO-3, Axl, MERTK (TAM) receptor tyrosine kinase (RTK) family. […] Upon GAS6 binding, Axl homodimerizes and subsequently induces several downstream signaling pathways involved in cell proliferation, migration, invasion, anti-apoptosis, angiogenesis, metastasis, and therapeutic resistance. Upregulation of Axl has been reported in a wide variety of cancer cell lines as well as in cancer specimens from patients with breast cancer, acute leukemia, colorectal cancer, lung cancer, melanoma, ovarian cancer, or prostate cancer, among others.
Compounds of Formula (I) as obtained above were initially diluted to […] in 100% DMSO (CALBIOCHEM™) for storage and made into kinase buffer solution to create a compound concentration ranging from 1 uM and 10 uM. Serial dilutions of the compounds were dispensed into a 96-well plate (GREINER BIOSCIENCES™) at 6 μL each. Truncated human Axl (CARNA BIOSCIENCES™) were diluted in kinase buffer and added to the compound solutions and pre-incubated for 30 minutes at room temperature. […] The reaction mixture was incubated for 1 hour. Following the incubation, the stop solution made with EDTA, water, and Lance detection buffer ([…]™) were added (12 μL each) to stop phosphorylation.

JAK2 = JAK2 (Homo sapiens (Human), UniProt O60674); test: Biochemical inhibition of JAK2; details: Table 2, range of IC50 value
JAK2, sequence (O60674 whole entry, species assumed): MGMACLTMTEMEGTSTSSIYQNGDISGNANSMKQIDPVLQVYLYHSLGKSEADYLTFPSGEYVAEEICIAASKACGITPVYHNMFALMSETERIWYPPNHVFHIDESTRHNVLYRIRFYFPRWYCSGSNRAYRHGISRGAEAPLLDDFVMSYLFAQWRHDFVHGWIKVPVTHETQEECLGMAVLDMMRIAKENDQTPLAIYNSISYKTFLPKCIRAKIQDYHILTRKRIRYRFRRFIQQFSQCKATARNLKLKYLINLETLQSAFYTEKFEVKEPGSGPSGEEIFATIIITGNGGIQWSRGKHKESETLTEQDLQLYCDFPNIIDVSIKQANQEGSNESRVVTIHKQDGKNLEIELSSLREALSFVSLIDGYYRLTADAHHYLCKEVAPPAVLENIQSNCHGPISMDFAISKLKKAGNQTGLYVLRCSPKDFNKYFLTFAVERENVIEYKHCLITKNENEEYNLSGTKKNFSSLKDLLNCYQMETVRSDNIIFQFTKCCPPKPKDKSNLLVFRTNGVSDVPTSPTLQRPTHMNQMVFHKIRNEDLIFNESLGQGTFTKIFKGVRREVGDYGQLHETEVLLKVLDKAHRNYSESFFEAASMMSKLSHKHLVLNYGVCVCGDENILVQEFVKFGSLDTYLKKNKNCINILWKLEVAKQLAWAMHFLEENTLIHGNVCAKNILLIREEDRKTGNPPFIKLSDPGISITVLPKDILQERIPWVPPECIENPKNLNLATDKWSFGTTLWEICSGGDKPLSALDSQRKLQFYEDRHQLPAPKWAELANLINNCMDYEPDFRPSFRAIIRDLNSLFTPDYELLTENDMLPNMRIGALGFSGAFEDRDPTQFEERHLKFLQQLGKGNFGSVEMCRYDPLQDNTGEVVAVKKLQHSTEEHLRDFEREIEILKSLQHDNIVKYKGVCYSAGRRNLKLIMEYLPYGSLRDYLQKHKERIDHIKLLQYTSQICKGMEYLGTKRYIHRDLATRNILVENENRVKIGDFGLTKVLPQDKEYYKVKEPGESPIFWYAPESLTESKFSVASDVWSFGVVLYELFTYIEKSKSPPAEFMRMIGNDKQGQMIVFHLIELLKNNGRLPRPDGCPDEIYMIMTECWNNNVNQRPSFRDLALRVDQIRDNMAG

MDA-MB-231 cells = test: Cell viability assay (ATPLite), MDA-MB-231; format: cell-based, human; details: for GI50: Homo sapiens, MDA-MB-231, 72 h, 72 hour incubation
Source text: (§1) Axl is a member of the TAM (TYRO3-Axl-MER) family of receptor tyrosine kinases, which, when activated, can increase tumor cell survival, proliferation, migration and invasion, angiogenesis, and tumor-host interactions. Upon GAS6 binding to Axl, Axl subsequently activates the signaling pathways downstream such as phosphoinositide 3-kinase (PI3K), RAt sarcoma (RAS), and extracellular signal regulated kinase (ERK).
(§2) This cell line was maintained with an Roswell Park Memorial Institute (RPMI) medium (HYCLONE™) containing 10% bovine calf serum (BCS; HYCLONE™) supplemented iron. The cells were seeded at 2×10^4 cells in 96-well culture plates, and serially diluted compounds were then added. After a 72 hour incubation period at 37° C., cell viability was measured using the ATPLite 1 step assay (PERKIN-ELMER™) that is based on the quantification of ATP from viable cells.

Hs578T cells = test: Cell viability assay (ATPLite), Hs578T; format: cell-based, human; details: Homo sapiens, Hs-578T, 72 h, 72 hour incubation
Source text: as §1, §2

[1] = Table 2, range of IC50 value, read-out: Axl

Truncated human Axl, sequence (P30530 26-894 limits assumed): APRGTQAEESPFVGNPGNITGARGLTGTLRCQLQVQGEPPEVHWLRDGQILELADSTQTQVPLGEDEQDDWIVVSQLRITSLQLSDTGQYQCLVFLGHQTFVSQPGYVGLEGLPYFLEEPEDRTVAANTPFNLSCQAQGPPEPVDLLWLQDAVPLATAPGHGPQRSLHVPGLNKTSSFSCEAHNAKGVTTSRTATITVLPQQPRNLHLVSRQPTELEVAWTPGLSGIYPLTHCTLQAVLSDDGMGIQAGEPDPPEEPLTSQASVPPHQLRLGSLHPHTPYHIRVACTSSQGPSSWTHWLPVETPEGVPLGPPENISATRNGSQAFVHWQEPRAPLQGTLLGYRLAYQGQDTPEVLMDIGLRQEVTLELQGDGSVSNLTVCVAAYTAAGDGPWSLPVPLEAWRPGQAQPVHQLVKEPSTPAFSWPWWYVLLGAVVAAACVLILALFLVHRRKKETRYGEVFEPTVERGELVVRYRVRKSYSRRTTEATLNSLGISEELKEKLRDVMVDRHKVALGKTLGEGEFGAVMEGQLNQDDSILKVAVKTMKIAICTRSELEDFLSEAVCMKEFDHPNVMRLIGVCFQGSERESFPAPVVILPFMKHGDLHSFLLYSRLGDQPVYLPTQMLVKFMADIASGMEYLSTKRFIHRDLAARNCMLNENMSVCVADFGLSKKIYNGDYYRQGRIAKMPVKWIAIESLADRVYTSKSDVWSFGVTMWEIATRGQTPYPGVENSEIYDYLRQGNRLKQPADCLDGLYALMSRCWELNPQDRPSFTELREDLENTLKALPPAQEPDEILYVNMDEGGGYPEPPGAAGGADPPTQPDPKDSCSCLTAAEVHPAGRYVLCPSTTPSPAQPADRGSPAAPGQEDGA

IC50 (Truncated human Axl; Table 1, read-out: Axl (IC50))	Compound	also measured
0.101 to 1 µM	CN1CCC(Nc2nc(Nc3ccc(OCc4ccccc4)cc3)c3c(=O)[nH]cc(Br)c3n2)CC1 [Compound 221, 4-((4-(benzyloxy)phenyl)amino)-8-bromo-2-((1-methylpiperidin-4-yl)amino)pyrido[4,3-d]pyrimidin-5(6H)-one]	
	CN1CCC(Nc2nc(Nc3ccc(Oc4ccccc4)cc3)c3c(=O)[nH]cc(Br)c3n2)CC1 [Compound 222, 8-bromo-2-((1-methylpiperidin-4-yl)amino)-4-((4-phenoxyphenyl)amino)pyrido[4,3-d]pyrimidin-5(6H)-one]	IC50 (JAK2): 0.101 to 1 µM
0.101 to 1 µM	CN1CCC(Nc2nc(Nc3ccc(OC4CCCC4)cc3)c3c(=O)[nH]cc(Br)c3n2)CC1 [Compound 223, 8-bromo-4-((4-(cyclopentyloxy)phenyl)amino)-2-((1-methylpiperidin-4-yl)amino)pyrido[4,3-d]pyrimidin-5(6H)-one]	IC50 (Truncated human Axl; [1]): 0.101 to 1 µM; IC50 (JAK2): 0.101 to 1 µM
0.101 to 1 µM	CN1CCC(Nc2nc(Nc3ccc(OCC4CCCCC4)cc3)c3c(=O)[nH]cc(Br)c3n2)CC1 [Compound 224, 8-bromo-4-((4-(cyclohexylmethoxy)phenyl)amino)-2-((1-methylpiperidin-4-yl)amino)pyrido[4,3-d]pyrimidin-5(6H)-one]	
0.011 to 0.1 µM	Cc1ccc(Oc2ccc(Nc3nc(NC4CCN(C)CC4)nc4c(Br)c[nH]c(=O)c34)cc2)cc1 [Compound 225, 8-bromo-2-((1-methylpiperidin-4-yl)amino)-4-((4-(p-tolyloxy)phenyl)amino)pyrido[4,3-d]pyrimidin-5(6H)-one]	IC50 (Truncated human Axl; [1]): 0.011 to 0.1 µM; IC50 (JAK2): 1 to 10 µM
0.101 to 1 µM	CN1CCC(Nc2nc(Nc3ccc(OCC4CCCC4)cc3)c3c(=O)[nH]cc(Br)c3n2)CC1 [Compound 227, 8-bromo-4-((4-(cyclopentylmethoxy)phenyl)amino)-2-((1-methylpiperidin-4-yl)amino)pyrido[4,3-d]pyrimidin-5(6H)-one]	
0.101 to 1 µM	CN1CCC(Nc2nc(Nc3ccc(OC4CCCCC4)cc3)c3c(=O)[nH]cc(Br)c3n2)CC1 [Compound 228, 8-bromo-4-((4-(cyclohexyloxy)phenyl)amino)-2-((1-methylpiperidin-4-yl)amino)pyrido[4,3-d]pyrimidin-5(6H)-one]	IC50 (Truncated human Axl; [1]): 0.101 to 1 µM; IC50 (JAK2): 0.101 to 1 µM
0.101 to 1 µM	CN1CCC(Nc2nc(Nc3ccc(OC4CCCCC4)cc3)c3c(=O)[nH]cc(Cl)c3n2)CC1 [Compound 229, 8-chloro-4-((4-(cyclohexyloxy)phenyl)amino)-2-((1-methylpiperidin-4-yl)amino)pyrido[4,3-d]pyrimidin-5(6H)-one]	
0.011 to 0.1 µM	CC(C)c1ccc(Oc2ccc(Nc3nc(NC4CCN(C)CC4)nc4c(Br)c[nH]c(=O)c34)cc2)cc1 [Compound 230, 8-bromo-4-((4-(4-isopropylphenoxy)phenyl)amino)-2-((1-methylpiperidin-4-yl)amino)pyrido[4,3-d]pyrimidin-5(6H)-one]	
0.011 to 0.1 µM	Cc1ccc(Oc2ccc(Nc3nc(NC4CCN(C)CC4)nc4c(Br)c[nH]c(=O)c34)cc2)cc1 [Compound 231, 8-bromo-2-((1-methylpiperidin-4-yl)amino)-4-((4-(p-tolyloxy)phenyl)amino)pyrido[4,3-d]pyrimidin-5(6H)-one hydrochloride]	
0.011 to 0.1 µM	CN1CCC(Nc2nc(Nc3ccc(Oc4ccc(F)cc4)cc3)c3c(=O)[nH]cc(Br)c3n2)CC1 [Compound 232, 8-bromo-4-((4-(4-fluorophenoxy)phenyl)amino)-2-((1-methylpiperidin-4-yl)amino)pyrido[4,3-d]pyrimidin-5(6H)-one hydrochloride]	
0.101 to 1 µM	CN1CCC(Nc2nc(Nc3ccc(OCc4ccccc4)cc3)c3c(=O)[nH]cc(Br)c3n2)CC1 [Compound 234, 4-((4-(benzyloxy)phenyl)amino)-8-bromo-2-((1-methylpiperidin-4-yl)amino)pyrido[4,3-d]pyrimidin-5(6H)-one hydrochloride]	
0.101 to 1 µM	CN1CCC(Nc2nc(Nc3ccc(OCC4CCCC4)cc3)c3c(=O)[nH]cc(Br)c3n2)CC1 [Compound 235, 8-bromo-4-((4-(cyclopentylmethoxy)phenyl)amino)-2-((1-methylpiperidin-4-yl)amino)pyrido[4,3-d]pyrimidin-5(6H)-one hydrochloride]	GI50 (MDA-MB-231 cells): 1.1 to 3 µM; GI50 (Hs578T cells): 1.1 to 3 µM
0.011 to 0.1 µM	CC(C)c1ccc(Oc2ccc(Nc3nc(NC4CCN(C)CC4)nc4c(Br)c[nH]c(=O)c34)cc2)cc1 [Compound 236, 8-bromo-4-((4-(4-isopropylphenoxy)phenyl)amino)-2-((1-methylpiperidin-4-yl)amino)pyrido[4,3-d]pyrimidin-5(6H)-one hydrochloride]	
0.101 to 1 µM	CN1CCC(Nc2nc(Nc3ccc(OC4CCCC4)cc3)c3c(=O)[nH]cc(Br)c3n2)CC1.Cl [Compound 237, 8-bromo-4-((4-(cyclopentyloxy)phenyl)amino)-2-((1-methylpiperidin-4-yl)amino)pyrido[4,3-d]pyrimidin-5(6H)-one hydrochloride]	GI50 (MDA-MB-231 cells): 1.1 to 3 µM; inhibition level in Axl-harboring breast cancer cell lines (MDA-MB-231 cells; compared with references ASP2215 and R428, MDA-MB-231 and Hs578T): greater than those exhibited by reference ASP2215 and R428; GI50 (Hs578T cells): 0.1 to 1 µM
0.011 to 0.1 µM	Cc1ccccc1Oc1ccc(Nc2nc(NC3CCN(C)CC3)nc3c(Br)c[nH]c(=O)c23)cc1 [Compound 239, 8-bromo-2-((1-methylpiperidin-4-yl)amino)-4-((4-(o-tolyloxy)phenyl)amino)pyrido[4,3-d]pyrimidin-5(6H)-one hydrochloride]	
0.011 to 0.1 µM	CN1CCC(Nc2nc(Nc3ccc(Oc4ccc(Cl)cc4)cc3)c3c(=O)[nH]cc(Br)c3n2)CC1 [Compound 242, 8-bromo-4-((4-(4-chlorophenoxy)phenyl)amino)-2-((1-methylpiperidin-4-yl)amino)pyrido[4,3-d]pyrimidin-5(6H)-one hydrochloride]	
0.011 to 0.1 µM	CN1CCC(Nc2nc(Nc3ccc(Oc4cc(F)cc(F)c4)cc3)c3c(=O)[nH]cc(Br)c3n2)CC1 [Compound 243, 8-bromo-4-((4-(3,5-difluorophenoxy)phenyl)amino)-2-((1-methylpiperidin-4-yl)amino)pyrido[4,3-d]pyrimidin-5(6H)-one hydrochloride]	
0.011 to 0.1 µM	Cc1cc(Nc2nc(NC3CCN(C)CC3)nc3c(Br)c[nH]c(=O)c23)ccc1Oc1cccc(F)c1 [Compound 244, 8-bromo-4-((4-(3-fluorophenoxy)-3-methylphenyl)amino)-2-((1-methylpiperidin-4-yl)amino)pyrido[4,3-d]pyrimidin-5(6H)-one hydrochloride]	
0.011 to 0.1 µM	CN1CCC(Nc2nc(Nc3ccc(Oc4ccccc4)c(F)c3)c3c(=O)[nH]cc(Br)c3n2)CC1 [Compound 245, 8-bromo-4-((3-fluoro-4-phenoxyphenyl)amino)-2-((1-methylpiperidin-4-yl)amino)pyrido[4,3-d]pyrimidin-5(6H)-one hydrochloride]	
0.011 to 0.1 µM	Cc1cc(Nc2nc(NC3CCN(C)CC3)nc3c(Br)c[nH]c(=O)c23)ccc1Oc1ccccc1 [Compound 246, 8-bromo-4-((3-methyl-4-phenoxyphenyl)amino)-2-((1-methylpiperidin-4-yl)amino)pyrido[4,3-d]pyrimidin-5(6H)-one hydrochloride]	
0.011 to 0.1 µM	CN1CCC(Nc2nc(Nc3ccc(Oc4cccc(F)c4)c(F)c3)c3c(=O)[nH]cc(Br)c3n2)CC1 [Compound 247, 8-bromo-4-((3-fluoro-4-(3-fluorophenoxy)phenyl)amino)-2-((1-methylpiperidin-4-yl)amino)pyrido[4,3-d]pyrimidin-5(6H)-one hydrochloride]	
0.011 to 0.1 µM	CC(C)N1CCC(Nc2nc(Nc3ccc(Oc4ccccc4)cc3)c3c(=O)[nH]cc(Br)c3n2)CC1 [Compound 248, 8-bromo-2-(1-isopropylpiperidin-4-ylamino)-4-(4-phenoxyphenylamino)pyrido[4,3-d]pyrimidin-5(6H)-one]	
0.011 to 0.1 µM	CCN1CCC(Nc2nc(Nc3ccc(Oc4ccccc4)cc3)c3c(=O)[nH]cc(Br)c3n2)CC1 [Compound 249, 8-bromo-2-(1-ethylpiperidin-4-ylamino)-4-(4-phenoxyphenylamino)pyrido[4,3-d]pyrimidin-5(6H)-one]	
0.101 to 1 µM	O=c1[nH]cc(Br)c2nc(NC3CCN(CC(F)(F)F)CC3)nc(Nc3ccc(Oc4ccccc4)cc3)c12 [Compound 250, 8-bromo-4-(4-phenoxyphenylamino)-2-(1-(2,2,2-trifluoroethyl)piperidin-4-ylamino)pyrido[4,3-d]pyrimidin-5(6H)-one]	
